Earlier results on one compound are cited in paper PMC8604667 (International Journal of Pharmaceutics: X, 2021).

Each structure is given as a SMILES string.

The conditions of series [1]: ref Venditto and Simanek, 2010.
In another series the test system is P-glycoprotein. Conditions: ref Takemoto et al., 2006; Negi et al., 2013.

Take `CC[C@@]1(O)C(=O)OCc2c1cc1n(c2=O)Cc2cc3ccccc3nc2-1` [camptothecin, Camptothecin]: in series [1], the “pH at which lactone and carboxylate forms co-exist at 50%” value was 6.65. The P-glycoprotein substrate entry with P-glycoprotein is on record as “P-glycoprotein substrate”.
